Columns and labels:
[1] = test system: P. batsensis; assay: Bacterial growth inhibition assay (OD600nm); type: cell-based, Pseudooceanicola batsensis
Description: As a first screening approach, liquid cultures of M. hydrocarbonoclasticus, and C. marina in a 96-well format were analyzed for bacterial growth inhibition by percent decrease in OD600 after incubation with napyradiomycins (1–12) at 31.25 µg/mL.
(§1) Five marine bacterial species were used as models to assess antimicrofouling activity. The biofilm-forming marine bacteria Marinobacter hydrocarbonoclasticus DSM 8798 (ATCC 49840), Cobetia marina DSM 4741, Phaeobacter inhibens DSM 17,395, and Pseusooceanicola batsensis DSM 15,984 were obtained from DSMZ (Leibniz Institute DSMZ—German collection of Microorganisms and Cell Cultures) and Micrococcus luteus. Cultures were routinely grown in liquid marine broth (Carl Roth GmbH, Karlsruhe, Germany) with agitation (180 rpm) or on agar-supplemented marine broth, at 28 °C (M. hydrocarbonoclasticus and C. marina) or 30 °C (P. inhibens and P. batsensis). M. luteus was maintained in Brain Heart Infusion broth (BHI, Becton Dickinson, GmbH, Heidelberg, Germany) with agitation (180 rpm) or on agar-supplemented BHI, at 37 °C.
(§2) The antibacterial activity of the napyradiomycins (1–12) was assessed in 96-well polystyrene flat bottom microplates (Nunclon Delta Surface, Thermo Scientific, Roskilde, Denmark) following previously reported procedures. For initial screening, bacterial overnight cultures were diluted to an optical density (OD600nm) of 0.2 and incubated statically at 28 °C (M. hydrocarbonoclasticus, C. marina), 30 °C (P. inhibens, P. batsensis) or 37 °C (M. luteus) in a 96-well microplate in the presence or absence of 31.25 µg/mL of the napyradiomycins, solubilized in DMSO. After 24 h (M. hydrocarbonoclasticus, C. marina) or 48 h (P. batsensis, P. inhibens, M. luteus) incubation, the OD600nm was determined (Molecular Devices, Spectra Max 190). […] The percentage of growth inhibition was calculated as the amount of growth relative to that of the bacterial species without added compounds (with the same amount of DMSO added). CuSO4 (5 μM), a potent antifouling agent used in antifouling paints, was used as reference.
(§3) All assays were performed in triplicate, and results are representative of the average and standard error of the mean (SEM). Statistical analysis was performed in GraphPad Prism 8.0.2 (San Diego, CA, USA), using one-way ANOVA followed by a Dunnett’s multiple comparisons test against the control (species grown with the same amount of DMSO added).

[2] = test system: P. inhibens; assay: Biofilm inhibition assay (crystal violet); type: cell-based, Phaeobacter inhibens; conditions: 31.25 µg/mL
Description: (§4) In a 96-well plate, biofilm grown cultures of M. hydrocarbonoclasticus and C. marina were incubated with napyradiomycins (1–12) at a concentration of 31.25 µg/mL. After discarding the media, biofilm inhibition was determined from OD600 measurements of crystal violet stained cells resuspended from the plate bottom with acetic acid.
as §1
(§5) The antibiofilm activity of napyradiomycins (1–12) against the five marine bacterial species was assessed in 96-well polystyrene flat bottom microplates (Nunclon Delta Surface, Thermo Scientific, Roskilde, Denmark) as previously reported. For initial screening, bacterial overnight cultures were diluted to an optical density (OD600nm) value of 0.2 and incubated statically at 28 °C (M. hydrocarbonoclasticus, C. marina), 30 °C (P. inhibens, P. batsensis) or 37 °C (M. luteus) in the 96-well microplate in the presence or absence of 31.25 µg/mL of napyradiomycins, solubilized in DMSO. After 24 h (M. hydrocarbonoclasticus, C. marina) or 48 h (P. batsensis, P. inhibens, M. luteus) incubation, the OD600nm was determined. The planktonic cells and media were discarded, and the wells were washed twice with deionized water. The biofilm was fixed for 1 h at 60 °C and stained with crystal violet 0.06% for 10 min. The dye was discarded, and the wells were again washed twice with deionized water. The stained biofilm was solubilized with 30% acetic acid and the OD600nm was determined. […] The percentage of biofilm inhibition was calculated as the amount of biofilm relative to that of the bacterial species without added compounds (with the same amount of DMSO added). CuSO4 (5 μM), a potent antifouling agent used in antifouling paints, was used as reference.
All assays were performed in triplicate, and results are representative of the average and standard error of the mean (SEM). […]

[3] = test system: P. batsensis; assay: Biofilm inhibition assay (crystal violet); type: cell-based, Pseudooceanicola batsensis; conditions: Pseudooceanicola batsensis
Description: as §4, §1, §5
as §3, with “8.0.2,” for “8.0.2 (San Diego, CA, USA),”

[4] = test system: C. marina; assay: Bacterial growth inhibition assay (OD600nm); type: cell-based, Cobetia marina
Description: as §1
as §2, with “For initial screening, bacterial overnight cultures were diluted to an optical density (OD600nm) of 0.2 and incubated statically at 28 °C (M. hydrocarbonoclasticus, C. marina), 30 °C (P. inhibens, P. batsensis) or 37 °C (M. luteus) in a 96-well microplate in the presence or absence of 31.25 µg/mL of the napyradiomycins, solubilized in DMSO.” left out
as §3

In the case of `CC(C)=CCCC(C)=CCC12OC(C)(C)C(Cl)CC1(Cl)C(=O)c1c(O)cc(O)cc1C2=O` (stereo not shown) [Napyradiomycin 1, napyradiomycin A1], the “% growth inhibition P. batsensis” value ([1]; 0.98 µg/mL) is reported as “N.I”, the “% growth inhibition P. batsensis” value ([1]; 1.95 µg/mL) is reported as “N.I” and the “% growth inhibition P. batsensis” value ([1]; 3.91 µg/mL) is reported as “N.I”. It also gave an inhibition at 7.81 µg/mL ([1]; Pseudooceanicola batsensis, 7.81 µg/mL) of 47.4 ± 0.3%, an inhibition at 15.6 µg/mL ([1]; Pseudooceanicola batsensis, 15.60 µg/mL) of 62.7 ± 0.6% and an inhibition at 31.25 µg/mL ([1]; Pseudooceanicola batsensis, 31.25 µg/mL) of 53.9 ± 0.3%. The “% Biofilm Inhibition ± SEM P. inhibens” value [2] was “N.I”, the inhibition at 0.98 µg/mL ([3]; 0.98 µg/mL, read-out: % inhibition of biofilm formation P. batsensis) was 4.3 ± 4.3% and the inhibition at 1.95 µg/mL ([3]; 1.95 µg/mL, read-out: % inhibition of biofilm formation P. batsensis) was 17.7 ± 0.8%. For the same compound, the inhibition at 3.91 µg/mL ([3]; 3.91 µg/mL, read-out: % inhibition of biofilm formation P. batsensis) was 38.1 ± 0.6%, the inhibition at 7.81 µg/mL ([3]; 7.81 µg/mL, read-out: % inhibition of biofilm formation P. batsensis) was 28.4 ± 2.8% and the inhibition at 15.6 µg/mL ([3]; 15.6 µg/mL, read-out: % inhibition of biofilm formation P. batsensis) was 86.9 ± 1%. The inhibition at 31.25 µg/mL ([3]; 31.25 µg/mL, read-out: % Biofilm Inhibition ± SEM P. batsensis) was 87.2 ± 0.1%, the “% growth inhibition C. marina” value ([4]; 0.98 µg/mL) was “N.I” and the “% growth inhibition C. marina” value ([4]; 1.95 µg/mL) was “N.I”. It also gave an inhibition at 3.91 µg/mL ([4]; Cobetia marina, 3.91 µg/mL) of 5.5 ± 0.8%, an inhibition at 7.81 µg/mL ([4]; Cobetia marina, 7.81 µg/mL) of 18.2 ± 0.7% and an inhibition at 15.6 µg/mL ([4]; Cobetia marina, 15.60 µg/mL) of 15.3 ± 0.7%. For the same compound, the inhibition at 31.25 µg/mL ([4]; Cobetia marina, 31.25 µg/mL) was 19.8 ± 0.6%.

— article PMC7024211, “Antifouling Napyradiomycins from Marine-Derived Actinomycetes Streptomyces aculeolatus” (Marine Drugs, 2020)
